Assay results published in patent US9315459B2, “Crystalline forms of 4-[2-(4-methylphenylsulfanyl)-phenyl] piperidine” (priority 2006, dated 2016).
Counter-ions that a name gives are not always drawn.

Experiment: Solubility of salts in water, pH of the saturated solution and identity of the precipitate
Assay type: physicochemical
Conditions: for Precipitate: precipitate isolated after the solubility determination compared with the compound dissolved; for Solubility in words: summary of table 3; for Resulting pH: pH in the saturated solution of the salt; for Formation of hydrates: when precipitated from water

Row | Precipitate | SMILES | also measured
1 | =Start | Cc1ccc(Sc2ccccc2C2CCNCC2)cc1 [Sebacoinic acid, 1,8-octanedioic acid 2:1] | 
2 | =start (after | Cc1ccc(Sc2ccccc2C2CCNCC2)cc1 (racemic) | Solubility in words: exceptionally high solubility
3 |  | Cc1ccc(Sc2ccccc2C2CCNCC2)cc1 [Phosphoric acid 1:1] | Resulting pH: 2.0
4 |  | Cc1ccc(Sc2ccccc2C2CCNCC2)cc1 [Glutamic acid 1:1] | Solubility in words: exceptionally high solubility
5 | =Start | Cc1ccc(Sc2ccccc2C2CCNCC2)cc1 [HCl, 4-[2-(4-methylphenyl-sulfanyl)phenyl]piperidine hydrochloride addition salt] | 
6 | =Start | Cc1ccc(Sc2ccccc2C2CCNCC2)cc1 [Oxalic acid 1:1] | 
7 | =Start | Cc1ccc(Sc2ccccc2C2CCNCC2)cc1 [Citric acid 2:1] | 
8 |  | Cc1ccc(Sc2ccccc2C2CCNCC2)cc1 [HBr, 4-[2-(4-methylphenylsulfanyl)phenyl]piperidine hydrobromide] | Resulting pH (hydrobromide): 7.0; Precipitate (hydrobromide): =Start; Formation of hydrates (listed as HBr addition salt, hydrobromide): does not form hydrates
9 | =start | Cc1ccc(Sc2ccccc2C2CCNCC2)cc1 [Adipicacid, 1,6-hexanedioic acid 2:1] | 
10 | =start | Cc1ccc(Sc2ccccc2C2CCNCC2)cc1 [Fumaric acid 1:1] | 
11 | =start | Cc1ccc(Sc2ccccc2C2CCNCC2)cc1 [Glutaric acid, 1,5-pentanedioic acid 1:1] | Solubility in words: exceptionally high solubility
12 | Hydrate | Cc1ccc(Sc2ccccc2C2CCNCC2)cc1 [D-tartaric acid, D-2,3-dihydroxy butanedioic acid 1:1] | Formation of hydrates: do
